# Like-named read-outs stand apart in the source and are kept apart here.
# Columns and labels:
# AKT2 = molecular target: T1, AKT2 (Homo sapiens, UniProt P31751); experiment: AKT2 biochemical kinase assay (FP iMAP); settings: read-out: AKT IC50, AKT2
# T1 construct: purchased Signal Chem
# Method: (§1) Biochemical analysis was performed using kinases obtained from Millipore (AKT1, ∆AKT1, ∆AKT2, ∆AKT3) and Signal Chem (AKT2 and AKT3). […] (Molecular Devices) against the three isoforms of AKT and their PH domain null mutants. Compounds were dissolved in DMSO prior to screening at 14 point titration series in the range (50 µM–50 pM). Fluorescence polarisation was measured using a Biotek Synergy 4 Hybrid microplate reader. Percentage inhibition of kinase activity was calculated and IC50 values derived using non-linear regression on GraphPad Prism. Competition of ALM301 with ATP was determined using AKT1 under increasing ATP concentrations up to 1000 µM.
# [1] = test system: pGSK3β in PC3 prostate cancer cells; experiment: pGSK3β ELISA in PC3 cells; assay type: cell-based; settings: for IC50: Homo sapiens, PC-3, PC3 cells, 24 h
# Method: (§2) Cells were then washed with PBS and lysed. The subsequent supernatant was assayed using a GSK3β (pS9) (Invitrogen, Life Technologies) ELISA. Phospho-AKT levels were detected using the phospho-AKT (S473) immunoassay (R&D Systems) as per manufacturer’s protocol. Percentage inhibition of phosphorylation status was calculated by comparing phospho-AKT levels to total AKT levels with each treatment and IC50 values derived using non-linear regression on GraphPad Prism.
# Kinetic solubility assay = assay type: physicochemical; settings: PBS pH 7.4, read-out: Kinetic solubility pH7.4
# Method: Compound solubility was tested in Dulbecco A PBS buffer at pH7.4 in Millipore MultiScreen Solubility Filter plates. Analysis was carried out on a Bioteck Synergy 4 plate reader (240–400 nm) and solubility quantified against a 5-point calibration curve.
# AKT3 = molecular target: T2, AKT3 (Homo sapiens, UniProt Q9Y243); experiment: AKT3 biochemical kinase assay (FP iMAP); settings: read-out: AKT IC50, AKT3
# T2 construct: purchased Signal Chem
# T2 sequence (Q9Y243 whole entry): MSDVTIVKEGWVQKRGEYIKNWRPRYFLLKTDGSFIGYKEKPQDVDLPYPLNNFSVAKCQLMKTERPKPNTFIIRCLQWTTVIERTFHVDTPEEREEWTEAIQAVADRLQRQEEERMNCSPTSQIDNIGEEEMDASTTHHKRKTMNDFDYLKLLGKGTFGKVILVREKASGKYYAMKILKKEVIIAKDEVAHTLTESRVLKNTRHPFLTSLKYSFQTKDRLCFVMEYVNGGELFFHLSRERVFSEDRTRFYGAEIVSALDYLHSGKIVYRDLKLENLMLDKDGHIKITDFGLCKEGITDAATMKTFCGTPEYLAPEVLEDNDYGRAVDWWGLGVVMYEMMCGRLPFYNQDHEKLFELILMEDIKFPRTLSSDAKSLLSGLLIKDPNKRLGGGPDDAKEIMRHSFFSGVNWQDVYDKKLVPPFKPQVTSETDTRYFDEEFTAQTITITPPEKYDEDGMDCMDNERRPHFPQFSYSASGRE
# Method: as §1
# AKT1 = molecular target: T3, AKT1 (Homo sapiens, UniProt P31749); experiment: AKT1 biochemical kinase assay (FP iMAP); settings: for IC50: read-out: AKT IC50, AKT1
# T3 construct: purchased Millipore
# T3 sequence (P31749 whole entry): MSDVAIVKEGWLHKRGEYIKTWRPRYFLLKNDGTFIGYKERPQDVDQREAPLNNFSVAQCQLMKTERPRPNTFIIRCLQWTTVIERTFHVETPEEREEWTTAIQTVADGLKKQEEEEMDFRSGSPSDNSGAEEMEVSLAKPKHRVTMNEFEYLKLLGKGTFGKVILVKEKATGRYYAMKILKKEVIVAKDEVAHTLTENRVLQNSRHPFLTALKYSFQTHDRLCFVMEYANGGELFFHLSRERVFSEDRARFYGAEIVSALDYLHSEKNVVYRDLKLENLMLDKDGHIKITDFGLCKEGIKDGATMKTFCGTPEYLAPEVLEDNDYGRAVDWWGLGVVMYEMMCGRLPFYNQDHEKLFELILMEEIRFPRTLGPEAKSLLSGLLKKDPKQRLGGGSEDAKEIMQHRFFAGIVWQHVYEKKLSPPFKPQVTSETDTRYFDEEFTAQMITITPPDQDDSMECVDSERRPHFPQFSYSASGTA
# Method: as §1
# LogD7.4 assay = assay type: physicochemical; settings: octanol/PBS buffer; octanol/PBS pH 7.4
# Method: Compounds (100 µM) were shaken at 300 rpm at room temperature for 4 h in a biphasic system of octanol and PBS buffer pH 7.4 in a 96-well plate in triplicate. The relative drug concentration in each phase was then determined by the peak area measurement from LC-UV analysis on an Agilent 1260 chromatography instrument (UV detection at 254 nm and 220 nm). LogD is calculated as follows: LogD = Log[peak area of compound in octanol x injection volume of buffer phase/peak area of compound in buffer x injection volume of octanol phase].
# [2] = In vitro proliferation assay (CellTiter-Glo), normal cell lines; assay type: cell-based; settings: human, normal cell lines (4 of the 6 tested; lines not named); 4 of the 6 normal cell lines tested; read-out: cytotoxicity EC50, normal cell lines
# Method: MCF-7, T47D, NCI-H460, HCT116, LNCaP, A431, PC3, PANC-1, A549, HT29M, SKOV-3, Du145, HMEC-1, Hs888Lu, Hela, MDA-MB-231 and SW480 cells were obtained from American Type Culture Collection (ATCC). A2780, PNT2, U251MG, HFFF2 and Fr2 cells were obtained from Public Health England European Collection of Authenticated Cell Cultures (Phe ECACC). InMyoFib and NHLF cells were acquired from Lonza. Cells were then incubated with increasing concentration of inhibitor (1 nM to 100 µM) for 72 h at 37 °C. Cell viability was determined using the CellTiter-Glo Luminescent Cell Viability Assay (Promega). IC50 values were derived as previously stated.
# [3] = test system: pAKT (Ser473) in MCF-7 cells; experiment: phospho-AKT (S473) ELISA in MCF-7 cells; assay type: cell-based; settings: Homo sapiens, MCF7, 24h treatment, read-out: EC50 inhibition of phosphorylation of AKT
# Method: as §2
# CYP 2C9 = CYP 2C9 (Homo sapiens, UniProt P11712); experiment: CYP2C9 inhibition; assay type: in vitro ADME
# Sequence of CYP 2C9 (P11712 whole entry): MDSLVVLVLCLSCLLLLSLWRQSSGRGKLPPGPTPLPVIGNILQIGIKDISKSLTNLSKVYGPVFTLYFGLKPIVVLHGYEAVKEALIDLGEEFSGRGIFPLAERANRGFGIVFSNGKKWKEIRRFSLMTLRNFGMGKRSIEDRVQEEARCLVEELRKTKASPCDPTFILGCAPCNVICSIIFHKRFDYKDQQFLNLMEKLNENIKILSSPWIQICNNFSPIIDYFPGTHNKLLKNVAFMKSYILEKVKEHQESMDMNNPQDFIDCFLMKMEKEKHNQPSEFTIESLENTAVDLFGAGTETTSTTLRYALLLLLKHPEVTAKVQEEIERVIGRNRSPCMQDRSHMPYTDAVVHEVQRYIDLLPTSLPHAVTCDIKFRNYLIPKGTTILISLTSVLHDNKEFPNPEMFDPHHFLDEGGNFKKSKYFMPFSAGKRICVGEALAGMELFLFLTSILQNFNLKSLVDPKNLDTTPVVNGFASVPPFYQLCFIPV
# [4] = test system: pAKT^S473 in A549 tumours; experiment: PK/PD study in A549 lung cancer xenograft model; assay type: in vivo, mouse; settings: single oral dose 100 mg/kg, 24-h time period, A549 xenograft
# Method: In order to understand the relationship between ALM301 plasma exposure and in vivo AKT target engagement over time, a PK/PD study was carried out in a A549 lung cancer xenograft model. […] ALM301 plasma concentrations and levels of pAKT^S473 in tumours were measured using western blotting and immunohistochemistry (Fig. 4A, B and Supplementary Fig. S4A–C). […] Tumour sections were collected following one dose of either vehicle or 30 mg/kg of ALM301 at noted time intervals (1 h, 2 h, 4 h, 8 h, 24 h). Tissue sections were subsequently stained with pAKT antibody (brown) staining and scored for pAKT staining using a scale of 1–4 (low to high) (Fig. 4B).
# For pharmacokinetic/pharmacodynamic (PK/PD) studies in A549 lung cancer xenografts, 150 male BALB/c nude mice aged 6–8 weeks and weighing approximately 18–22 g were inoculated with 1 × 10^7 A549 tumour cells (ATCC) in 0.1 mL of PBS with Matrigel (1:1) subcutaneously into the right flank. Once the mean tumour size reached 150–250 mm^3, the mice were randomised into treatment groups (18 mice per group) using a randomised block design (first, experimental animals are divided into homogeneous blocks according to their initial tumour volume; secondly, within each block, randomisation of animals to treatment groups was conducted so that each animal had the same probability of being assigned to a given treatment, thereby reducing systematic bias). Group sizes were devised based on previous pilot studies using a minimal numbers approach of n = 3 tumours per time-point (6 time-points per dose level). […] Tumour size was measured twice weekly in two dimensions using a caliper, and the volume expressed in mm^3 using the formula: V = 0.5 (a × b^2), where a and b are the long and short diameters of the tumour, respectively.
# [5] = In vitro microsomal stability, rat; assay type: in vitro ADME; settings: pH 7.4; rat liver microsomes; read-out: rat LM CLint
# Method: (§3) Compounds (final concentration = 1 µM; final DMSO concentration = 0.1%) were incubated in 0.1 M phosphate buffer at pH 7.4 with liver microsomes (human, mouse, rat or dog; 0.5 mg of protein/mL) at 37 °C. Reactions were started by addition of NADPH in 0.1 M phosphate buffer pH 7.4 (final concentration 1 mM). Reactions were quenched by addition of ice-cold methanol and frozen. The supernatants were analysed by LC/MS/MS on a Waters Acquity I-Class coupled to a Waters Xevo TQD mass spectrometer. A Waters BEH C18 2.1 × 50 mm 1.7 µm column was used and mobile phases consisted of water and methanol containing 0.1% formic acid as modifier. Analysis was by multiple reaction monitoring and conditions were optimised for each test compound.
# [6] = In vitro microsomal stability, human; assay type: in vitro ADME; settings: pH 7.4; human liver microsomes; read-out: human LM CLint
# Method: as §3
# [7] = Pharmacokinetic study in Sprague–Dawley rats; assay type: in vivo, rat; settings: male SD rats
# Method: Eight rats were purchased and 6 used on the PK study (3 per administration route). The remaining rats were purchased in case of mis-dosing events and were used to obtain blank biological matrix. Compounds were administered as single i.v. doses at 1 mg free base/kg or single oral doses at 5 mg free base/kg, with blood samples obtained from three rats per dose route, at 9 time-points out to 24 h post-dose. Both the intravenous and oral doses were prepared at a concentration of 1 mg free base/mL in a mixture of 5% DMSO/95% saline. Blood samples were centrifuged to give plasma. Plasma proteins were precipitated, and compounds extracted by addition of six volumes of acetonitrile containing warfarin as internal standard. Samples were centrifuged at 4000 rpm for 30 min and the supernatants were analysed on a Waters Xevo TQ mass spectrometer. Multiple Reaction Monitoring (MRM) methods were developed for each test compound using Waters IntelliStart software.
# Quantification of test compounds was by extrapolation from calibration lines prepared in control rat plasma and analysed concurrently with experimental samples.
# Non-compartmental analysis was performed using the software package PK Solutions 2.0 from Summit Research Services to produce the PK parameters. AUC values were calculated by the trapezoidal method.
# Oral bioavailability was estimated by comparison of the drug concentration/time AUCs for individual animals after oral dosing with the mean AUC from i.v. doses.
# MCF-7 cells = settings: ALM301 in combination with Tamoxifen
# Method: A synergy screen, using ALM301 and combination partners in a matrix design, was conducted to identify compounds which are synergistic in combination with ALM301. Synergy was calculated using the median concentration effect method using Calcusyn software as previously described.
# MCF-7 xenografts = experiment: Efficacy study in MCF-7 breast cancer xenograft model; assay type: in vivo; settings: MCF-7 xenograft, tamoxifen alone 5 mg/kg q.d. p.o.
# Method: For efficacy in MCF-7 xenografts, 150 SCID female mice aged 6–8 weeks and weighing approximately 18–22 g were implanted with 1 × 10^7 MCF-7 tumour cells (ATCC) subcutaneously in the right flank. […] Once mean tumour size reached approximately 150 mm^3, mice were randomised to either control or treatment groups (n = 10/group) using a randomised block approach. Groups sizes were devised based on past experience of the provider. […] Tumour size was measured twice weekly in two dimensions using a caliper, and the volume expressed in mm^3 using the formula: V = 0.5 (a x b^2), where a and b are the long and short diameters of the tumour, respectively.
# [8] = PBS buffer, pH 7.4, aqueous buffer, kinetic from dmso stock
# T1 sequence (P31751 whole entry): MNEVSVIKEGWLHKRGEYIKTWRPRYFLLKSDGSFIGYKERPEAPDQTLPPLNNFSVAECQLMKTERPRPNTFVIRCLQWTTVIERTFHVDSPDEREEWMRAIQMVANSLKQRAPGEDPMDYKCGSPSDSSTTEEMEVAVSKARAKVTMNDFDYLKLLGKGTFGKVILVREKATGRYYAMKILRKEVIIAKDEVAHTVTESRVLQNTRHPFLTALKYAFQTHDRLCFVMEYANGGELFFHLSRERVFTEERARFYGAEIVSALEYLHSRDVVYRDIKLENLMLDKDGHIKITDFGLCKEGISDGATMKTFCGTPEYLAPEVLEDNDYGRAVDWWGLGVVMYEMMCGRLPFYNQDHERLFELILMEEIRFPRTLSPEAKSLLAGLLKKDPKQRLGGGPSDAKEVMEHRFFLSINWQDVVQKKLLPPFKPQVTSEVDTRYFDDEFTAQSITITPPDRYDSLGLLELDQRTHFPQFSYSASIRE
smiles,measurement,setting,value
CN1C(=O)COc2nc(-c3ccc(C4(N)CCC4)cc3)c(-c3ccccc3)cc21 [compound 2],IC50,AKT2,400 nM
same,IC50,[1],100 nM
same,potency improvement in pGSK3β decrease compared with des-N-methyl analogue 1,[1]; PC3 prostate cancer cells,ca. 30 fold
same,solubility kinetic,Kinetic solubility assay; [8],> 190 µM
same,solubility kinetic,Kinetic solubility assay,191 µM
same,IC50,AKT3,5.6 µM
same,AKT1 ligand efficiency (LE),AKT1,0.34
same,IC50,AKT1,100 nM
"NC1(c2ccc(-c3nc4ccn5c(=O)[nH]nc5c4cc3-c3ccccc3)cc2)CCC1 [MK-2206, reference compound]",IC50,[1],120 nM
same,logD at 4 h,LogD7.4 assay,2.4
same,EC50 at 72 h,[2],< 20 µM
same,EC50,[3],2550 nM
same,IC50,CYP 2C9,19 µM
same,pAKT^S473 in tumours,[4],incomplete inhibition
same,solubility kinetic,Kinetic solubility assay; [8],190 µM
same,microsomal CLint at 1 µM,[5],13 µL/min/mg
same,microsomal CLint at 1 µM,[6],20 µL/min/mg
same,clearance,"[7]; Sprague-Dawley, rat, plasma, iv, 1 mg/kg i.v., read-out: Rat PK CL",24 mL/min/kg
same,Vd,"[7]; Sprague-Dawley, rat, plasma, iv, 1 mg/kg i.v., read-out: Rat PK Vd",12 L/kg
same,Rat PK F,"[7]; 1 mg/kg i.v. and 5 mg/kg p.o., AUC 0-∞",12%
NC1(c2ccc(-c3nc4c(cc3-c3ccccc3)NC(=O)CO4)cc2)CCC1 [compound 1],IC50,AKT2,3300 nM
same,IC50,[1],3000 nM
same,solubility kinetic,Kinetic solubility assay; [8],206 µM
same,IC50,AKT3,6.1 µM
same,AKT1 ligand efficiency (LE),AKT1,0.28
same,IC50,AKT1,2500 nM
CC/C(=C(\c1ccccc1)c1ccc(OCCN(C)C)cc1)c1ccccc1 [tamoxifen],combination effect at ED50,MCF-7 cells,Synergy
same,combination effect at ED75,MCF-7 cells,Synergy
same,combination effect at ED90,MCF-7 cells,Strong Synergy
same,tumour regression,MCF-7 xenografts,24%

# — paper PMC9489722, “Identification and development of a subtype-selective allosteric AKT inhibitor suitable for clinical development” (Scientific Reports, 2022)
